Tests used:
[1] = biological target: CDK4/Cyclin D1 (Homo sapiens, UniProt P11802); assay: CDK4/Cyclin D1 kinase inhibition TR-FRET assay; assay type: biochemical; conditions: 1 mM ATP, 0.15 μM Rb (Ser780)-biotin substrate, read-out: CDK4D1 IC50
Experimental: (§1) Compounds disclosed herein were tested for inhibition of CDK4/Cyclin D1 or CDK6/Cyclin D3 kinase in an assay based on the time-resolved fluorescence-resonance energy transfer (TR-FRET) methodology. The assay was carried out in 384-well low volume black plates in a reaction mixture containing CDK4/Cyclin D1 or CDK6/Cyclin D3, 1 mM ATP, 0.15 μM Rb (Ser780)-biotin substrate and 0-10 μM compound in buffer containing 50 mM HEPES pH7.0, 0.02% NaN3, 0.01% BSA, 0.1 mM Orthovanadate, 50 mM MgCl2, 1 mM DTT and 0.005% Tween-20. The kinase was incubated with compound for 60 minutes at room temperature and the reaction was initiated by the addition of ATP and Rb (Ser780)-biotin substrate. After reaction at room temperature for 120 minutes, an equal volume of stop/detection solution was added according to the manufacture's instruction (Cisbio Bioassays). The stop/detection solution contained Streptavidin-XL665 and Anti-pRb (Ser780) mAb-Eu Cryptate in Detection buffer (Cisbio Bioassays). Plates were incubated at room temperature for 60 minutes, and the TR-FRET signals (ex337 nm, em665 nm/620 nm) were recorded on a PHERAstar FSX plate reader (BMG Labtech). The inhibition percentage of CDK4/Cyclin D1 or CDK6/Cyclin D3 kinase activity in presence of increasing concentrations of compounds was calculated based on the ratio of fluorescence at 665 nm to that at 620 nm. The IC50 for each compound was derived from fitting the data to the four-parameter logistic equation by Dotmatics.

[2] = biological target: CDK6/Cyclin D3 (Homo sapiens, UniProt Q00534); assay: CDK6/Cyclin D3 kinase inhibition TR-FRET assay; assay type: biochemical; conditions: 1 mM ATP, 0.15 μM Rb (Ser780)-biotin substrate, read-out: CDK6D3 IC50
CDK6/Cyclin D3, sequence (Q00534 whole entry): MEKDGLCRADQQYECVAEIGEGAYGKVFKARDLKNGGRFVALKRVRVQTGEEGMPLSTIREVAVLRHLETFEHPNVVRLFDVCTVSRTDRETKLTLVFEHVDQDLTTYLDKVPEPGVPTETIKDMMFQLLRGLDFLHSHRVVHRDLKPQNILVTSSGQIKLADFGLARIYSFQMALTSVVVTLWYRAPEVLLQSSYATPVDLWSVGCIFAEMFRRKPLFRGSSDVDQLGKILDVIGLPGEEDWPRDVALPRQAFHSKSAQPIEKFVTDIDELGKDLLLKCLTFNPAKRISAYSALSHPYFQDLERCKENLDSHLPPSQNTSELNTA
CDK6/Cyclin D3, sequence (P30281 whole entry partner): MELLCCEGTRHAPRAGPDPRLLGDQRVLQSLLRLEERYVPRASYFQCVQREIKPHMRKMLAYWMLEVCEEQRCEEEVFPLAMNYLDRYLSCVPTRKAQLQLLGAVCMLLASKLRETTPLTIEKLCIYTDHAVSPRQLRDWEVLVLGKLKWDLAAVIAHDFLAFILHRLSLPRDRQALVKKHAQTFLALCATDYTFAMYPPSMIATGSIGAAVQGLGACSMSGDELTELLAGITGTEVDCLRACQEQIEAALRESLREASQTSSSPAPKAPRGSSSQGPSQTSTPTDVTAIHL
Experimental: as §1

CDK4/Cyclin D1, sequence (P11802 whole entry): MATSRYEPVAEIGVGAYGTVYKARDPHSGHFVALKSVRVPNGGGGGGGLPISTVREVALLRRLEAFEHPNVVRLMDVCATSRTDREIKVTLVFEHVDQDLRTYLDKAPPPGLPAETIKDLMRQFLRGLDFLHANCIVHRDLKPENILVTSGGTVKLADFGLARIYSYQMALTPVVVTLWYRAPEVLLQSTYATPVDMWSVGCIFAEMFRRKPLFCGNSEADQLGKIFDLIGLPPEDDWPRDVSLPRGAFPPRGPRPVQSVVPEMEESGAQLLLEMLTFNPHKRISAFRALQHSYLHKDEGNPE
CDK4/Cyclin D1, sequence (P24385 whole entry partner): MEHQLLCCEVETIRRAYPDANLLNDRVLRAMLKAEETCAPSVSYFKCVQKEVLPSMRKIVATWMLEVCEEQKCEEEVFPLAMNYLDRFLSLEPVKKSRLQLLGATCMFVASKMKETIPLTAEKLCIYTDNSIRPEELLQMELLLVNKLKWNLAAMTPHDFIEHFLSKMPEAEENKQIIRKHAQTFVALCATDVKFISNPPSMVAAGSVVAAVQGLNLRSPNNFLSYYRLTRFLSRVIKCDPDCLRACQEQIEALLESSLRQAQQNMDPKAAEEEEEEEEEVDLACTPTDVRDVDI

Row | IC50 [1] | IC50 [2] | SMILES
1 | 7.9 nM | 107 nM | CC(C)c1c(CO)cnc2ccc(-c3nc(N[C@@H]4CCOC[C@@H]4O)ncc3F)cc12 [Example 1, (3R,4R)-4-((5-fluoro-4-(3-(hydroxymethyl)-4-isopropylquinolin-6-yl)pyrimidin-2-yl)amino)tetrahydro-2H-pyran-3-ol]
2 | 21 nM | 456 nM | CC(C)c1c(CN2CCOCC2)cnc2ccc(-c3nc(N[C@@H]4CCOC[C@@H]4O)ncc3F)cc12 [Example 2, (3R,4R)-4-((5-fluoro-4-(4-isopropyl-3-(morpholinomethyl)quinolin-6-yl)pyrimidin-2-yl)amino)tetrahydro-2H-pyran-3-ol]
3 | 16 nM | 1100 nM | CC(C)c1c(CN[C@@H]2CCCOC2)cnc2ccc(-c3nc(N[C@@H]4CCOC[C@@H]4O)ncc3F)cc12 [Example 3, (3R,4R)-4-((5-fluoro-4-(4-isopropyl-3-((((R)-tetrahydro-2H-pyran-3-yl)amino)methyl)quinolin-6-yl)pyrimidin-2-yl)amino)tetrahydro-2H-pyran-3-ol]
4 | 2.6 nM | 190 nM | CC(C)c1c(CN)cnc2ccc(-c3nc(N[C@@H]4CCOC[C@@H]4O)ncc3F)cc12 [Example 4, (3R,4R)-4-((4-(3-(aminomethyl)-4-isopropylquinolin-6-yl)-5-fluoropyrimidin-2-yl)amino)tetrahydro-2H-pyran-3-ol]
5 | 26 nM | 1830 nM | CC(C)c1c(CN2CC(O)C2)cnc2ccc(-c3nc(N[C@@H]4CCOC[C@@H]4O)ncc3F)cc12 [Example 5, 1-((6-(5-fluoro-2-(((3R,4R)-3-hydroxytetrahydro-2H-pyran-4-yl)amino)pyrimidin-4-yl)-4-isopropylquinolin-3-yl)methyl)azetidin-3-ol]
6 | 7 nM | 273 nM | CC(C)c1c(CN2CCC[C@H](C#N)C2)cnc2ccc(-c3nc(N[C@@H]4CCOC[C@@H]4O)ncc3F)cc12 [Example 6, (S)-1-((6-(5-fluoro-2-(((3R,4R)-3-hydroxytetrahydro-2H-pyran-4-yl)amino)pyrimidin-4-yl)-4-isopropylquinolin-3-yl)methyl)piperidine-3-carbonitrile]
7 | 24 nM | 544 nM | CC(C)c1c(CN2CCC[C@@H](C#N)C2)cnc2ccc(-c3nc(N[C@@H]4CCOC[C@@H]4O)ncc3F)cc12 [Example 7, (R)-1-((6-(5-fluoro-2-(((3R,4R)-3-hydroxytetrahydro-2H-pyran-4-yl)amino)pyrimidin-4-yl)-4-isopropylquinolin-3-yl)methyl)piperidine-3-carbonitrile]
8 | 21 nM | 921 nM | CC(C)c1c(CN2[C@H](C)COC[C@@H]2C)cnc2ccc(-c3nc(N[C@@H]4CCOC[C@@H]4O)ncc3F)cc12 [Example 8, (3R,4R)-4-((4-(3-(((3R,5S)-3,5-dimethylmorpholino)methyl)-4-isopropylquinolin-6-yl)-5-fluoropyrimidin-2-yl)amino)tetrahydro-2H-pyran-3-ol]
9 | 22 nM | 532 nM | CC(C)c1c(CN2[C@H](C)COC[C@H]2C)cnc2ccc(-c3nc(N[C@@H]4CCOC[C@@H]4O)ncc3F)cc12 [Example 9, (3R,4R)-4-((4-(3-(((3R,5R)-3,5-dimethylmorpholino)methyl)-4-isopropylquinolin-6-yl)-5-fluoropyrimidin-2-yl)amino)tetrahydro-2H-pyran-3-ol]
10 | 12 nM | 510 nM | CC(C)c1c(CNC2CC2)cnc2ccc(-c3nc(N[C@@H]4CCOC[C@@H]4O)ncc3F)cc12 [Example 10, (3R,4R)-4-((4-(3-((cyclopropylamino)methyl)-4-isopropylquinolin-6-yl)-5-fluoropyrimidin-2-yl)amino)tetrahydro-2H-pyran-3-ol]
11 | 16 nM | 1270 nM | CC(C)c1c(CN[C@H]2CCOC2)cnc2ccc(-c3nc(N[C@@H]4CCOC[C@@H]4O)ncc3F)cc12 [Example 11, (3R,4R)-4-((5-fluoro-4-(4-isopropyl-3-((((S)-tetrahydrofuran-3-yl)amino)methyl)quinolin-6-yl)pyrimidin-2-yl)amino)tetrahydro-2H-pyran-3-ol]
12 | 5.5 nM | 300 nM | CC(C)c1c(C2(O)CCCC2)cnc2ccc(-c3nc(N[C@@H]4CCOC[C@@H]4O)ncc3F)cc12 [Example 12, (3R,4R)-4-((5-fluoro-4-(3-(1-hydroxycyclopentyl)-4-isopropylquinolin-6-yl)pyrimidin-2-yl)amino)tetrahydro-2H-pyran-3-ol]
13 | 7.6 nM | 287 nM | CC(C)c1c(CN2[C@H](C)COC[C@@H]2C)cnc2c(F)cc(-c3nc(N[C@@H]4CCOC[C@@H]4O)ncc3F)cc12 [Example 13, (3R,4R)-4-((4-(3-(((3R,5S)-3,5-dimethylmorpholino)methyl)-8-fluoro-4-isopropylquinolin-6-yl)-5-fluoropyrimidin-2-yl)amino)tetrahydro-2H-pyran-3-ol]
14 | 15 nM | 462 nM | CC(C)c1c(CNC2CC(F)(F)C2)cnc2c(F)cc(-c3nc(N[C@@H]4CCOC[C@@H]4O)ncc3F)cc12 [Example 14, (3R,4R)-4-((4-(3-(((3,3-difluorocyclobutyl)amino)methyl)-8-fluoro-4-isopropylquinolin-6-yl)-5-fluoropyrimidin-2-yl)amino)tetrahydro-2H-pyran-3-ol]
15 | 21 nM | 702 nM | CC(C)c1c(CN[C@@H]2CCCOC2)cnc2c(F)cc(-c3nc(N[C@@H]4CCOC[C@@H]4O)ncc3F)cc12 [Example 15, (3R,4R)-4-((5-fluoro-4-(8-fluoro-4-isopropyl-3-((((R)-tetrahydro-2H-pyran-3-yl)amino)methyl)quinolin-6-yl)pyrimidin-2-yl)amino)tetrahydro-2H-pyran-3-ol]
16 | 4.4 nM | 93 nM | CC(C)c1c(C2(O)CCCC2)cnc2c(F)cc(-c3nc(N[C@@H]4CCOC[C@@H]4O)ncc3F)cc12 [Example 16, (3R,4R)-4-((5-fluoro-4-(8-fluoro-3-(1-hydroxycyclopentyl)-4-isopropylquinolin-6-yl)pyrimidin-2-yl)amino)tetrahydro-2H-pyran-3-ol]
17 | 9 nM | 228 nM | CC(C)c1c(C(C)(C)O)cnc2c(F)cc(-c3nc(N[C@@H]4CCOC[C@@H]4O)ncc3Cl)cc12 [Example 17, (3R,4R)-4-((5-chloro-4-(8-fluoro-3-(2-hydroxypropan-2-yl)-4-isopropylquinolin-6-yl)pyrimidin-2-yl)amino)tetrahydro-2H-pyran-3-ol]
18 | 8.4 nM | 273 nM | CC(C)c1c(C2(O)CCOCC2)cnc2c(F)cc(-c3nc(N[C@@H]4CCOC[C@@H]4O)ncc3Cl)cc12 [Example 18, (3R,4R)-4-((5-chloro-4-(8-fluoro-3-(4-hydroxytetrahydro-2H-pyran-4-yl)-4-isopropylquinolin-6-yl)pyrimidin-2-yl)amino)tetrahydro-2H-pyran-3-ol]
19 | 7.9 nM | 409 nM | CC(C)c1c(CN2[C@H](C)COC[C@@H]2C)cnc2c(F)cc(-c3nc(N[C@@H]4CCOC[C@@H]4O)ncc3Cl)cc12 [Example 21, (3R,4R)-4-((5-chloro-4-(3-(((3R,5S)-3,5-dimethylmorpholino)methyl)-8-fluoro-4-isopropylquinolin-6-yl)pyrimidin-2-yl)amino)tetrahydro-2H-pyran-3-ol]

From patent publication US20260242363A1, “SUBSTITUTED 6-(PYRIMIDIN-4-YL)QUINOLINE COMPOUNDS AS CYCLIN DEPENDENT KINASE INHIBITORS” (BeOne Medicines I GmbH, priority 2023, published 2026)
